# Measurements as given in PubChem BioAssay AID330 (DTP/NCI, 2004).
# Where “and” joins values, the source holds several entries; their conditions need not be identical. Equal values may be shown once. Toxic doses and inconclusive results are not listed.
# Test system: P388 leukemia ip, CD2F1 mice, survival T/C
# Experiment: NCI In Vivo Anticancer Drug Screen. Data for tumor model P388 Leukemia (intraperitoneal) in CD2F1 (CDF1) mice
# Details: endpoint: median survival time, higher = longer survival
# Method in brief: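 Mice carrying the transplanted tumor received test compound or vehicle. Survival was recorded in each group, and the value is the treated-group measurement divided by that of the vehicle-treated control group.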
# [1] = dose: 6.25 mg/kg/injection, schedule: Q01DX009 (ip), vehicle: saline with Tween-80
# [2] = dose: 12.5 mg/kg/injection, schedule: Q01DX009 (ip), vehicle: saline with Tween-80
# [3] = dose: 25.0 mg/kg/injection, schedule: Q01DX009 (ip), vehicle: saline with Tween-80
# [4] = dose: 50.0 mg/kg/injection, schedule: Q01DX009 (ip), vehicle: saline with Tween-80
# [5] = dose: 50.0 mg/kg/injection, schedule: Q01DX009 (ip), vehicle: saline
# [6] = dose: 50.0 mg/kg/injection, schedule: Q01DX009 (ip), vehicle: Klucel (hydroxypropylcellulose) (HPC)
# [7] = dose: 100.0 mg/kg/injection, schedule: Q01DX009 (ip), vehicle: Klucel (hydroxypropylcellulose) (HPC)
# [8] = dose: 50.0 mg/kg/injection, schedule: Q01DX005 (ip), vehicle: saline with Tween-80
# [9] = dose: 100.0 mg/kg/injection, schedule: Q01DX005 (ip), vehicle: saline with Tween-80
# [10] = dose: 200.0 mg/kg/injection, schedule: Q01DX005 (ip), vehicle: saline with Tween-80
# [11] = dose: 50.0 mg/kg/injection, schedule: Q01DX005 (ip), vehicle: Klucel (hydroxypropylcellulose) (HPC)
# [12] = dose: 100.0 mg/kg/injection, schedule: Q01DX005 (ip), vehicle: Klucel (hydroxypropylcellulose) (HPC)
# [13] = dose: 200.0 mg/kg/injection, schedule: Q01DX005 (ip), vehicle: Klucel (hydroxypropylcellulose) (HPC)
# [14] = dose: 25.0 mg/kg/injection, schedule: Q01DX009 (ip), vehicle: saline
# [15] = dose: 60.0 mg/kg/injection, schedule: Q01DX005 (ip), vehicle: saline with Tween-80
# [16] = dose: 120.0 mg/kg/injection, schedule: Q01DX005 (ip), vehicle: saline with Tween-80
structure (smiles),measurement,setting,value
O=c1oc(-c2ccc(Cl)cc2)nc2cc(Cl)ccc12,T/C,[1],96 % of control
same,T/C,[2],100 % of control
same,T/C,[3],100 % of control
same,T/C,[4],99 % of control
NCC(=O)O,T/C,"dose: 3.75 mg/kg/injection, schedule: Q01DX005 (ip), vehicle: saline",99 % of control
same,T/C,"dose: 7.5 mg/kg/injection, schedule: Q01DX005 (ip), vehicle: saline",100 % of control
same,T/C,"dose: 15.0 mg/kg/injection, schedule: Q01DX005 (ip), vehicle: saline",99 % of control and 94 % of control
same,T/C,[5],94 % of control
same,T/C,"dose: 100.0 mg/kg/injection, schedule: Q01DX009 (ip), vehicle: saline",105 % of control
same,T/C,"dose: 200.0 mg/kg/injection, schedule: Q01DX009 (ip), vehicle: saline",110 % of control
COc1ccc(C(=O)c2ccccc2)cc1,T/C,[6],105 % of control
same,T/C,[7],108 % of control
same,T/C,"dose: 200.0 mg/kg/injection, schedule: Q01DX009 (ip), vehicle: Klucel (hydroxypropylcellulose) (HPC)",102 % of control
same,T/C,"dose: 400.0 mg/kg/injection, schedule: Q01DX009 (ip), vehicle: Klucel (hydroxypropylcellulose) (HPC)",98 % of control
CCCCN(CCNc1cc(OC)cc2cccnc12)C(C)CC (centres undefined),T/C,"dose: 12.5 mg/kg/injection, schedule: Q01DX005 (ip), vehicle: saline",112 % of control
same,T/C,"dose: 25.0 mg/kg/injection, schedule: Q01DX005 (ip), vehicle: saline",119 % of control
same,T/C,"dose: 50.0 mg/kg/injection, schedule: Q01DX005 (ip), vehicle: saline",98 % of control and 104 % of control
COc1ccc(C2CC(=O)C(C(=O)OC3CCCCC3)C2c2ccc(OC)cc2)cc1 (centres undefined),T/C,"dose: 12.5 mg/kg/injection, schedule: Q01DX001 (ip), vehicle: Klucel (hydroxypropylcellulose) (HPC)",92 % of control
same,T/C,"dose: 25.0 mg/kg/injection, schedule: Q01DX001 (ip), vehicle: Klucel (hydroxypropylcellulose) (HPC)",93 % of control
same,T/C,"dose: 50.0 mg/kg/injection, schedule: Q01DX001 (ip), vehicle: Klucel (hydroxypropylcellulose) (HPC)",86 % of control
CCc1c(C)sc(=S)n1C(C)C(=O)OC (centres undefined),T/C,[8],98 % of control
same,T/C,[9],106 % of control
same,T/C,[10],107 % of control
CC1(C)CC(=O)C(=N/O)/C(=N\NC(N)=S)C1,T/C,[8],102 % of control
same,T/C,[9],103 % of control
same,T/C,[10],110 % of control
CC(=O)NNC(=O)NCCCCCCNC(=O)NNC(C)=O,T/C,[11],101 % of control
same,T/C,[12],97 % of control
same,T/C,[13],92 % of control
same,T/C,"dose: 400.0 mg/kg/injection, schedule: Q01DX005 (ip), vehicle: Klucel (hydroxypropylcellulose) (HPC)",94 % of control
COc1cccc2c1C(=O)c1c(O)c3c(c(O)c1C2=O)C[C@@](O)(C(=O)CSC(C)=O)C[C@@H]3OC1CC(N)C(O)C(C)O1 (some centres undefined),T/C,"dose: 25.0 mg/kg/injection, schedule: Q01DX009 (ip), vehicle: water",108 % of control and 90 % of control
CSC1=NN(C(C)=O)C(c2ccccn2)S1 (centres undefined),T/C,[11],100 % of control
same,T/C,[12],100 % of control
same,T/C,[13],101 % of control
Cc1cc(C(=O)O)sn1,T/C,"dose: 3.12 mg/kg/injection, schedule: Q01DX009 (ip), vehicle: saline",100 % of control
same,T/C,"dose: 6.25 mg/kg/injection, schedule: Q01DX009 (ip), vehicle: saline",100 % of control
same,T/C,"dose: 12.5 mg/kg/injection, schedule: Q01DX009 (ip), vehicle: saline",96 % of control
same,T/C,[14],100 % of control
C1=CC(=NN=P(c2ccccc2)(c2ccccc2)c2ccccc2)C=C1,T/C,[4],89 % of control
same,T/C,"dose: 100.0 mg/kg/injection, schedule: Q01DX009 (ip), vehicle: saline with Tween-80",102 % of control
same,T/C,"dose: 200.0 mg/kg/injection, schedule: Q01DX009 (ip), vehicle: saline with Tween-80",97 % of control
CCOC(=O)C1=C(O)C2(CC(C)=C(C)CS2=O)SC1=Nc1ccccc1 (centres undefined),T/C,[15],96 % of control
same,T/C,[16],107 % of control
same,T/C,"dose: 240.0 mg/kg/injection, schedule: Q01DX005 (ip), vehicle: saline with Tween-80",104 % of control
CC(=O)O[C@H]1[C@H]2O[C@]23[C@@H]2CC[C@]4(O)C[C@@H](O)CC[C@]4(C)[C@H]2CC[C@]3(C)[C@H]1c1ccc(=O)oc1,T/C,"dose: 12.5 mg/kg/injection, schedule: Q01DX009 (ip), vehicle: Klucel (hydroxypropylcellulose) (HPC)",114 % of control
same,T/C,"dose: 25.0 mg/kg/injection, schedule: Q01DX009 (ip), vehicle: Klucel (hydroxypropylcellulose) (HPC)",105 % of control
same,T/C,[6],105 % of control
same,T/C,[7],120 % of control
O=C1CSC(=Nc2ccc(F)cc2F)N1Cc1cccs1,T/C,"dose: 60.0 mg/kg/injection, schedule: Q01DX005 (ip), vehicle: Klucel (hydroxypropylcellulose) (HPC)",102 % of control
same,T/C,"dose: 120.0 mg/kg/injection, schedule: Q01DX005 (ip), vehicle: Klucel (hydroxypropylcellulose) (HPC)",113 % of control
same,T/C,"dose: 240.0 mg/kg/injection, schedule: Q01DX005 (ip), vehicle: Klucel (hydroxypropylcellulose) (HPC)",103 % of control
COc1cc(O)c(O)c(C(C)(C)C)c1,T/C,"dose: 3.75 mg/kg/injection, schedule: Q01DX005 (ip), vehicle: saline with Tween-80",103 % of control
same,T/C,"dose: 7.5 mg/kg/injection, schedule: Q01DX005 (ip), vehicle: saline with Tween-80",105 % of control
same,T/C,"dose: 15.0 mg/kg/injection, schedule: Q01DX005 (ip), vehicle: saline with Tween-80",108 % of control
same,T/C,"dose: 30.0 mg/kg/injection, schedule: Q01DX005 (ip), vehicle: saline with Tween-80",116 % of control
same,T/C,[15],107 % of control
same,T/C,[16],95 % of control
CC(C)=CCC1=CC(=O)C(CC=C(C)C)=CC1=O,T/C,"dose: 3.12 mg/kg/injection, schedule: Q01DX009 (ip), vehicle: saline with Tween-80",105 % of control
same,T/C,[1],118 % of control
same,T/C,[2],100 % of control
same,T/C,[3],90 % of control and 96 % of control
COCCOP(=O)(N1CC1)N1CC1,T/C,"dose: 6.25 mg/kg/injection, schedule: Q04DX003 (ip), vehicle: saline",118 % of control
same,T/C,[14],181 % of control
same,T/C,"dose: 25.0 mg/kg/injection, schedule: Q04DX003 (ip), vehicle: saline",177 % of control
same,T/C,"dose: 33.0 mg/kg/injection, schedule: Q04DX003 (ip), vehicle: saline",150 % of control
same,T/C,[5],122 % of control
same,T/C,"dose: 50.0 mg/kg/injection, schedule: Q04DX003 (ip), vehicle: saline",175 % of control and 190 % of control
same,T/C,"dose: 75.0 mg/kg/injection, schedule: Q04DX003 (ip), vehicle: saline",120 % of control
CC(C)C12CC3=C(C(=O)C1O2)C1(C)CCC2=C(COC2=O)C1CC3 (centres undefined),T/C,"dose: 3.75 mg/kg/injection, schedule: Q01DX005 (ip), vehicle: DMSO",102 % of control
same,T/C,"dose: 7.5 mg/kg/injection, schedule: Q01DX005 (ip), vehicle: DMSO",119 % of control
same,T/C,"dose: 15.0 mg/kg/injection, schedule: Q01DX005 (ip), vehicle: DMSO",123 % of control
O=C(N=C1SC(=NC2CCCCC2)N1C1CCCCC1)c1ccccc1,T/C,"dose: 100.0 mg/kg/injection, schedule: Q01DX001 (ip), vehicle: Klucel (hydroxypropylcellulose) (HPC)",95 % of control
same,T/C,"dose: 200.0 mg/kg/injection, schedule: Q01DX001 (ip), vehicle: Klucel (hydroxypropylcellulose) (HPC)",100 % of control
C=CCN1c2c(nc(N)[nH]c2=O)NCC1CNc1ccc(C(=O)NC(CCC(=O)O)C(=O)O)cc1 (centres undefined),T/C,"dose: 50.0 mg/kg/injection, schedule: Q04DX003 (ip), vehicle: alkali diluted with saline",113 % of control
same,T/C,"dose: 100.0 mg/kg/injection, schedule: Q04DX003 (ip), vehicle: alkali diluted with saline",95 % of control
same,T/C,"dose: 200.0 mg/kg/injection, schedule: Q04DX003 (ip), vehicle: alkali diluted with saline",111 % of control
COC1c2cc3ccccc3nc2-c2ccccc2C1(C)C (centres undefined),T/C,"dose: 25.0 mg/kg/injection, schedule: Q01DX009 (ip), vehicle: other",99 % of control
same,T/C,"dose: 50.0 mg/kg/injection, schedule: Q01DX009 (ip), vehicle: other",96 % of control
same,T/C,"dose: 100.0 mg/kg/injection, schedule: Q01DX009 (ip), vehicle: other",93 % of control
same,T/C,"dose: 200.0 mg/kg/injection, schedule: Q01DX009 (ip), vehicle: other",89 % of control
same,T/C,"dose: 400.0 mg/kg/injection, schedule: Q01DX009 (ip), vehicle: other",89 % of control
O=C(NC(Cc1ccc(Cl)cc1)C(=O)O)c1ccc(I)cc1 (centres undefined),T/C,[11],101 % of control
same,T/C,[12],101 % of control
same,T/C,[13],94 % of control
